Consider three compounds from patent US20250223303A1, “TRICYCLIC BORONIC ACID DERIVATIVE, AND PREPARATION METHOD THEREFOR AND APPLICATION THEREOF” (priority 2021, published 2025).

Structures are written as SMILES.

Test [1] deals with Escherichia coli ARLG 2829. The experiment in a line: MIC test of compounds in combination with antibiotics, Escherichia coli ARLG 2829. As to conditions: for MIC: Escherichia coli, ARLG2829.
Test [2] deals with Klebsiella pneumoniae ARLG 1196. The experiment in a line: MIC test of compounds in combination with antibiotics, Klebsiella pneumoniae ARLG 1196. As to conditions: for MIC: Klebsiella pneumoniae, ARLG1196.
Test [3] has as its system Klebsiella pneumoniae ATCC BAA-2470. The experiment in a line: MIC test of compounds in combination with antibiotics, Klebsiella pneumoniae ATCC BAA-2470. To be noted: for MIC: Klebsiella pneumoniae, ATCCBAA2470.
Protocol: Strain preparation: the strains to be tested were streaked from glycerol tube at −80° C. onto Mueller Hinton II Agar plates. The plates were then placed in a 37° C. incubator and cultured for 18-24 hours.
Media preparation: CAMHB (Mueller Hinton II Broth): 22 g of powder was dissolved in 1 L of purified water and sterilized at 121° C. for 10 min for use. Saline: 8.5 g NaCl was dissolved in 1 L of pure water and sterilized at 121° C. for 30 min for use.
Preparation of compound and antibiotic stock solutions: the compound and antibiotic were dissolved in DMSO or water to 12.8 mg/mL.
(§1) 2-Fold gradient dilution of antibiotics: 300 μL of CAMHVIB medium was added to columns 2-12 of a 96-deep well plate. In column 1, 24 μL of antibiotic stock solution and 576 µL of CAMHB medium were added and mixed well, with a concentration of 512 μg/mL. 300 µL of antibiotic solution was transferred from the column 1 to the second column and mixed well. The process was repeated until column 11, and the column 12 was a blank control.
(§2) Dilution of combined compounds: the compound was diluted 400-fold to 32 μg/ml with CAMHB medium.
(§3) Working solution aliquoting: 25 μL of antibiotics was aliquoted into the 96-U bottom plate with a pipette, and 25 μL of combined compound was added to each well. If antibiotics were used alone, 25 μL of CAMHB medium was added.
(§4) Inoculum solution preparation: 5-6 single colonies were selected from the plate and suspended in normal saline. The bacterial suspension was adjusted to 0.2 (i.e., 0.5 McFarland turbidity, with a bacterial concentration was about 1 to 2×10^8 CFU/mL) with a turbidity meter. The bacterial suspension was diluted 100-fold with CAMHB medium for later use.
(§5) Inoculation: 50 μL of inoculum solution was transferred to the above 50 μL compound plate with a pipette.
(§6) Culture: The 96-U bottom plate was placed in an incubator at 37° C. for 18 to 20 h.
After the incubation, bacterial growth was visually observed, and the test plate was photographed and recorded.
For test [4], the system named is Klebsiella pneumoniae ATCC BAA-1705. The experiment in a line: MIC test of compounds in combination with antibiotics, Klebsiella pneumoniae ATCC BAA-1705. To be noted: for MIC: Klebsiella pneumoniae, ATCCBAA1705.
Test [5] concerns Acinetobacter baumannii WX-AB005. The experiment in a line: MIC test of compounds in combination with antibiotics, Acinetobacter baumannii WX-AB005. To be noted: Acinetobacter baumannii, WXAB005.
Protocol: as §1, §2, §3, §4, §5, §6
In test [6] the test system is Acinetobacter baumannii WX-AB013. The experiment in a line: MIC test of compounds in combination with antibiotics, Acinetobacter baumannii WX-AB013. To be noted: Acinetobacter baumannii, WXAB013.
Protocol: as §1, §2, §3, §4, §5, §6
The test system of test [7] is Acinetobacter baumannii ARLG-1791 OXA-23. The experiment in a line: MIC test of compounds in combination with antibiotics, Acinetobacter baumannii ARLG-1791. To be noted: Acinetobacter baumannii, ARLG1791OXA23.
Protocol: as §1, §2, §3, §4, §5, §6
The test system of test [8] is Acinetobacter baumannii ARLG-1809 OXA-23. The experiment in a line: MIC test of compounds in combination with antibiotics, Acinetobacter baumannii ARLG-1809. To be noted: Acinetobacter baumannii, ARLG1809OXA23.
Protocol: as §1, §2, §3, §4, §5, §6
For test [9], the system named is Acinetobacter baumannii ARLG-1852 OXA-23. The experiment in a line: MIC test of compounds in combination with antibiotics, Acinetobacter baumannii ARLG-1852. To be noted: Acinetobacter baumannii, ARLG1852OXA23.
Protocol: as §1, §2, §3, §4, §5, §6
For test [10], the system named is Acinetobacter baumannii ARLG-1853 OXA-23. The experiment in a line: MIC test of compounds in combination with antibiotics, Acinetobacter baumannii ARLG-1853. As to conditions: Acinetobacter baumannii, ARLG1853OXA23.
Protocol: as §1, §2, §3, §4, §5, §6
Test [11] deals with Acinetobacter baumannii WX-AB005. The experiment in a line: MIC test of compounds in combination with antibiotics, Acinetobacter baumannii WX-AB005.
Protocol: as §1, §2, §3, §4, §5, §6
For test [12], the system named is Acinetobacter baumannii WX-AB013. The experiment in a line: MIC test of compounds in combination with antibiotics, Acinetobacter baumannii WX-AB013.
Protocol: as §1, §2, §3, §4, §5, §6
Test [13] concerns Acinetobacter baumannii ARLG-1791 OXA-23. The experiment in a line: MIC test of compounds in combination with antibiotics, Acinetobacter baumannii ARLG-1791.
Protocol: as §1, §2, §3, §4, §5, §6
The subject of test [14] is Acinetobacter baumannii ARLG-1809 OXA-23. The experiment in a line: MIC test of compounds in combination with antibiotics, Acinetobacter baumannii ARLG-1809.
Protocol: as §1, §2, §3, §4, §5, §6
The subject of test [15] is Acinetobacter baumannii ARLG-1852 OXA-23. The experiment in a line: MIC test of compounds in combination with antibiotics, Acinetobacter baumannii ARLG-1852.
Test [16] relates to Acinetobacter baumannii ARLG-1853 OXA-23. The experiment in a line: MIC test of compounds in combination with antibiotics, Acinetobacter baumannii ARLG-1853.
Protocol: as §1, §2, §3, §4, §5, §6

Take `C[C@@H](O)[C@H]1C(=O)N2C(C(=O)O)=C(S[C@@H]3CN[C@H](C(=O)N(C)C)C3)[C@H](C)[C@H]12` [Meropenem]: the MIC (usually the lowest concentration found to suppress growth) was > 128 µg/mL in test [1]; 128 µg/mL in test [2]; 128 µg/mL in test [3]; 128 µg/mL in [4]; > 128 µg/mL in test [5]; 64 µg/mL in [6]. Further, the MIC was > 128 µg/mL in test [7], 32 µg/mL in test [8], 128 µg/mL in test [9] and 128 µg/mL in test [10].

`CO/N=C(\C(=O)N[C@@H]1C(=O)N2C(C(=O)[O-])=C(C[N+]3(C)CCCC3)CS[C@H]12)c1csc(N)n1` [Cefepime]: the MIC is > 64 µg/mL in [1]; > 64 µg/mL in test [2]; > 128 µg/mL in test [3]; > 128 µg/mL in test [4]; 64 µg/mL in test [5]; 32 µg/mL in test [6]. Besides, the MIC in [7], in [8], in test [9] and in test [10] was 128 µg/mL throughout.

In the case of `CC(Sc1ccc2c(c1C(=O)O)OB(O)C1CC21)C1CCOCC1` (single isomer, unassigned) [Compound 17-b], the “MIC of biapenem in combination with compound, Escherichia coli ARLG-2829 NDM-5, OXA-1” value in [1] (Biapenem + compound (8 μg/mL)) was found to be 0.25 µg/mL. Moreover, the “MIC of meropenem in combination with compound, Escherichia coli ARLG-2829 NDM-5, OXA-1” value in [1] (Meropenem + compound (8 μg/mL)) was 4 µg/mL. Also, the “MIC of biapenem in combination with compound, Klebsiella pneumoniae ARLG-1196 CTM-1 group, SHV, NDM, TEM” value in [2] (Biapenem + compound (8 μg/mL)) amounted to 0.5 µg/mL. For the same compound, the “MIC of meropenem in combination with compound, Klebsiella pneumoniae ARLG-1196 CTM-1 group, SHV, NDM, TEM” value in test [2] (Meropenem + compound (8 μg/mL)) stood at 8 µg/mL. The “MIC of biapenem in combination with compound, Klebsiella pneumoniae ATCC BAA-2470 NDM-1” value in [3] (Biapenem + compound (8 μg/mL)) was found to be 0.25 µg/mL. The “MIC of meropenem in combination with compound, Klebsiella pneumoniae ATCC BAA-2470 NDM-1” value in test [3] (Meropenem + compound (8 μg/mL)) is 64 µg/mL. Moreover, the “MIC of biapenem in combination with compound, Klebsiella pneumoniae ATCC BAA-1705 KPC-2” value in [4] (Biapenem + compound (8 μg/mL)) was found to be 2 µg/mL. The “MIC of meropenem in combination with compound, Klebsiella pneumoniae ATCC BAA-1705 KPC-2” value in test [4] (Meropenem + compound (8 μg/mL)) turned out to be 8 µg/mL. Further, in test [11] (Biapenem + compound (8 μg/mL)), the “MIC of biapenem in combination with compound, Acinetobacter baumannii WX-AB005” value is 4 µg/mL. In addition, the “MIC of meropenem in combination with compound, Acinetobacter baumannii WX-AB005” value in [11] (Meropenem + compound (8 μg/mL)) amounted to 32 µg/mL. The “MIC of biapenem in combination with compound, Acinetobacter baumannii WX-AB013” value in test [12] (Biapenem + compound (8 μg/mL)) came out at 2 µg/mL. The “MIC of meropenem in combination with compound, Acinetobacter baumannii WX-AB013” value in test [12] (Meropenem + compound (8 μg/mL)) came to 16 µg/mL. Also, in test [13] (Biapenem + compound (8 μg/mL)), the “MIC of biapenem in combination with compound, Acinetobacter baumannii ARLG-1791 OXA-23” value is 2 µg/mL. For the same compound, the “MIC of meropenem in combination with compound, Acinetobacter baumannii ARLG-1791 OXA-23” value in [13] (Meropenem + compound (8 μg/mL)) turned out to be 16 µg/mL. For the same compound, the “MIC of biapenem in combination with compound, Acinetobacter baumannii ARLG-1809 OXA-23” value in test [14] (Biapenem + compound (8 μg/mL)) was 4 µg/mL. The “MIC of meropenem in combination with compound, Acinetobacter baumannii ARLG-1809 OXA-23” value in test [14] (Meropenem + compound (8 μg/mL)) was 32 µg/mL. For the same compound, in [15] (Biapenem + compound (8 μg/mL)), the “MIC of biapenem in combination with compound, Acinetobacter baumannii ARLG-1852 OXA-23” value is 0.5 µg/mL. The “MIC of meropenem in combination with compound, Acinetobacter baumannii ARLG-1852 OXA-23” value in test [15] (Meropenem + compound (8 μg/mL)) was 8 µg/mL. Moreover, the “MIC of biapenem in combination with compound, Acinetobacter baumannii ARLG-1853 OXA-23” value in test [16] (Biapenem + compound (8 μg/mL)) was 1 µg/mL. The “MIC of meropenem in combination with compound, Acinetobacter baumannii ARLG-1853 OXA-23” value in test [16] (Meropenem + compound (8 μg/mL)) came to 16 µg/mL.
